The supplement of paper PMC10307832

Legend:
Assay in all cases: relative viability (nuclei count vs DMSO), 5 days (fraction); higher = more cells survive
[1] = compound: CC1=NN=C(O1)C2=NN=C(C=C2)N3CCC(CC3)OC4=C(C=CC(=C4)F)Cl + C[C@@H](Oc1cc(-c2cnn(C3CCNCC3)c2)cnc1N)c1c(Cl)ccc(F)c1Cl [Crizotinib] (partner 1 µM)
Procedure, shortened: (§1)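 Five library-drug doses in √10 steps were combined with a fixed anchor-drug dose, or a single drug was given alone, by pin tool to lung cancer cell lines in 1536-well plates the day after seeding. Nuclei were stained and counted after 5 days. Relative viability is the nuclei count in treated wells over that in vehicle wells, taken as the median of duplicate plates.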

[2] = compound: CC1=NN=C(O1)C2=NN=C(C=C2)N3CCC(CC3)OC4=C(C=CC(=C4)F)Cl + CC1(C)CCC(c2ccc(Cl)cc2)=C(CN2CCN(c3ccc(C(=O)NS(=O)(=O)c4ccc(N[C@H](CCN5CCOCC5)CSc5ccccc5)c(S(=O)(=O)C(F)(F)F)c4)cc3)CC2)C1 [Navitoclax] (partner 0.5 µM)
Procedure, shortened: as §1

Tosedostat + Tozasertib = compound: CC(C)C[C@@H](C(=O)N[C@H](C(=O)OC1CCCC1)c1ccccc1)[C@H](O)C(=O)NO [Tosedostat] + Cc1cc(Nc2cc(N3CCN(C)CC3)nc(Sc3ccc(NC(=O)C4CC4)cc3)n2)n[nH]1 [Tozasertib] (partner 0.1 µM)
Procedure, shortened: as §1

[3] = compound: CC1=NN=C(O1)C2=NN=C(C=C2)N3CCC(CC3)OC4=C(C=CC(=C4)F)Cl + Nc1nc2[nH]cc(CCc3ccc(C(=O)N[C@@H](CCC(=O)O)C(=O)O)cc3)c2c(=O)[nH]1 [Pemetrexed] (partner 0.2 µM)
Procedure, shortened: as §1

Cell Line	relative viability ([1]; first compound 0.253 µM)	relative viability ([1]; first compound 0.8 µM)	relative viability ([1]; first compound 2.53 µM)	relative viability ([1]; first compound 8 µM)	relative viability ([2]; first compound 0.253 µM)	relative viability ([2]; first compound 0.8 µM)	relative viability ([2]; first compound 2.53 µM)	relative viability ([2]; first compound 8 µM)	relative viability (Tosedostat + Tozasertib; first compound 0.02 µM)	relative viability (Tosedostat + Tozasertib; first compound 0.06325 µM)	relative viability (Tosedostat + Tozasertib; first compound 0.2 µM)	relative viability (Tosedostat + Tozasertib; first compound 0.6325 µM)	relative viability (Tosedostat + Tozasertib; first compound 2 µM)	relative viability ([3]; first compound 0.253 µM)	relative viability ([3]; first compound 0.8 µM)	relative viability ([3]; first compound 2.53 µM)	relative viability ([3]; first compound 8 µM)
COR-L 105	0.689	0.907	0.786	0.82	0.686	0.846	0.622	0.727	0.359	0.291	0.392	0.378	0.338	1.2	1.07	1.18	1.29
NCI-H2085	0.76	0.656	0.821	0.683	0.9	0.919	0.908	0.698	0.695	0.695	0.784	0.909	0.838	0.801	0.676	0.841	0.696
NCI-H2087	0.652	0.598	0.544	0.486	0.701	0.713	0.724	0.63	0.301	0.284	0.277	0.108	0.081	0.561	0.534	0.511	0.47
NCI-H1650		0.748	0.806	0.803		0.895	0.816	0.868	0.333	0.503	0.339	0.238	0.242	0.317	0.349	0.33	0.343
NCI-H322M	0.762	0.792	0.899	0.886	1.17	1.11	1.11	1	0.461	0.468	0.434	0.419	0.341	0.629	0.381	0.578	0.592
HCC-366	0.289	0.284	0.256	0.272	0.445	0.387	0.423	0.364	0.113	0.113	0.0994	0.0993	0.0727	0.0851	0.121	0.174	0.15
EMC-BAC-2	0.583	0.648	0.632	0.545	0.998	0.909	1.03	0.936	0.281	0.27	0.265	0.242	0.187	0.452	0.419	0.485	0.527
NCI-H460	0.359	0.301	0.311	0.296	0.429	0.42	0.45	0.392	0.313	0.502	0.687	0.325	0.264	0.0764	0.0663	0.0645	0.071
